Drawing on PubChem BioAssay (NCI), this text covers TGI and GI50 for ten compounds.

Where “and” joins values, the source holds several entries; their conditions need not be identical. Equal entries are not always repeated.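 96-well plates; 48 h exposure; 5 concentrations. Endpoints by linear interpolation between flanking doses. Not reached: highest tested concentration assigned. Abbreviation: GI50, concentration required for 50% inhibition of growth. Definition used: TGI = concentration required for complete inhibition of growth.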

Test systems include A498 renal; HCC-2998 colon; HOP-62 NSCLC; HOP-92 NSCLC; KM12 colon; SF-295 CNS; SK-MEL-2 melanoma; SR leukemia; MDA-MB-231 breast; PC-3 prostate.
Holding throughout (test): NCI tumour cell line growth inhibition, 48 h

Regarding `CCN(CCCl)CCCNc1c2ccccc2nc2ccc(OC)cc12`, the TGI came out at 356 µM in the experiment on A498 renal and 1.04 µM in the experiment with SR leukemia. Besides, the GI50 in the experiment with HCC-2998 colon was 436 µM; in the experiment on HOP-62 NSCLC, 200 µM; in the experiment on HOP-92 NSCLC, 180 µM; in the experiment with KM12 colon, 268 µM; with SF-295 CNS it was 308 µM; with SK-MEL-2 melanoma, 587 µM.
`O=C(c1ccco1)c1c(C(F)(F)F)n([O-])c2ccccc2[n+]1=O`: the GI50 in the experiment with A498 renal is 1.57 µM; in the experiment with HOP-62 NSCLC it was 0.949 µM; in the experiment on HOP-92 NSCLC it was 0.144 µM; with KM12 colon, 0.911 µM; in the experiment with MDA-MB-231 breast, 0.772 µM; in the experiment with PC-3 prostate, 0.338 µM. In addition, the GI50 is 1.32 µM in the experiment with SF-295 CNS, 1.48 µM in the experiment with SK-MEL-2 melanoma and 0.0737 µM in the experiment with SR leukemia. The TGI in the experiment on A498 renal stood at 8.27 µM; with HOP-62 NSCLC, 4.34 µM; in the experiment with HOP-92 NSCLC it was 0.986 µM; with KM12 colon, 8.18 µM; in the experiment with MDA-MB-231 breast it was 3.6 µM; in the experiment on PC-3 prostate, 3.61 µM. In addition, the values for the TGI in the experiment with SF-295 CNS, in the experiment with SK-MEL-2 melanoma and with SR leukemia were 7.69 µM, 6.19 µM and 0.523 µM, respectively.
For `CC(=O)OCC1OC(OC2CC3C(C)(C)C(O)CC[C@]3(C)C3CCC45CC4(CC[C@H]5C(C)CC(O)C4OC4(C)C)[C@]23C)C(O)C(O)C1O` (some centres undefined), the TGI in the experiment with A498 renal was 51.8 µM; in the experiment with HCC-2998 colon it was 13.8 µM and 21.3 µM; in the experiment on HOP-62 NSCLC it was 19.1 µM and 29.5 µM; in the experiment with HOP-92 NSCLC, 14.6 µM; with KM12 colon, 15.6 µM and 17.3 µM; with SF-295 CNS, 15.1 µM and 19.5 µM. Moreover, the TGI is 12.1 µM and 8.67 µM in the experiment on SK-MEL-2 melanoma; 3.53 µM and 4.13 µM with SR leukemia. For the same compound, the GI50 was 8.26 µM with HCC-2998 colon; 14.2 µM in the experiment on HOP-62 NSCLC; 4.66 µM in the experiment on KM12 colon; 2.46 µM in the experiment with SK-MEL-2 melanoma; 1.93 µM in the experiment with SR leukemia.
In the case of `C1OC1CO[C@@H]1CO[C@H]2[C@@H]1OC[C@H]2OCC1CO1` (some centres undefined), the TGI with A498 renal, in the experiment with HCC-2998 colon, in the experiment on HOP-62 NSCLC, in the experiment on HOP-92 NSCLC, with KM12 colon and in the experiment with SF-295 CNS was over 100 µM each time. Besides, the TGI with SK-MEL-2 melanoma and in the experiment on SR leukemia was over 100 µM each time.
`COc1ccc(/C=C\c2cc(OC)c(OC)c(OC)c2)cc1OC(=O)CCC(=O)O`: in the experiment on A498 renal, the GI50 is under 0.0001 µM. The TGI with HOP-62 NSCLC was over 100 µM; with PC-3 prostate, over 100 µM; with SF-295 CNS, 67.7 µM; with SK-MEL-2 melanoma it was over 100 µM; with SR leukemia, over 100 µM.
For `O=C(Cc1cccc(OC(F)(F)F)c1)Nc1ccc(CCCCc2nnc(NC(=O)Cc3ccccn3)s2)nn1`, the GI50 in the experiment with HCC-2998 colon is 52.4 µM; with HOP-92 NSCLC it was 6.19 µM; with KM12 colon it was 14.1 µM; in the experiment with MDA-MB-231 breast it was 29.8 µM; with PC-3 prostate, 18.3 µM; in the experiment on SF-295 CNS, 11.5 µM. The GI50 in the experiment with SK-MEL-2 melanoma is 19 µM; in the experiment with SR leukemia, 33.7 µM. The TGI in the experiment on HCC-2998 colon was over 100 µM; in the experiment with HOP-92 NSCLC it was 25.9 µM; in the experiment with KM12 colon, over 100 µM; with MDA-MB-231 breast it was over 100 µM; in the experiment with PC-3 prostate, over 100 µM; with SF-295 CNS, 31.4 µM. For the same compound, the TGI was 47.5 µM in the experiment with SK-MEL-2 melanoma and over 100 µM in the experiment on SR leukemia.
For the compound `O=C(C(=O)N1CC2C=CC1CC2)c1c[nH]c2ccccc12` (centres undefined), the TGI in the experiment with A498 renal, with HCC-2998 colon, in the experiment with HOP-62 NSCLC, in the experiment with HOP-92 NSCLC, in the experiment on KM12 colon and with SF-295 CNS was over 100 µM throughout. Further, the TGI with SK-MEL-2 melanoma and in the experiment on SR leukemia was over 100 µM each time.
Take `C=C1C(=O)O[C@H]2[C@H]1CC/C(COC(=O)CSCC(=O)OC/C1=C/CC[C@@]3(C)O[C@H]3[C@H]3OC(=O)C(=C)[C@@H]3CC1)=C\CC[C@@]1(C)O[C@@H]21`: the GI50 in the experiment on HCC-2998 colon is 2.12 µM; in the experiment on HOP-62 NSCLC, 5.25 µM; in the experiment on HOP-92 NSCLC, 1.43 µM; in the experiment with KM12 colon, 2.59 µM; with MDA-MB-231 breast, 1.63 µM; in the experiment with PC-3 prostate, 2.21 µM. The GI50 is 10.2 µM with SF-295 CNS, 2.12 µM in the experiment on SK-MEL-2 melanoma and 0.282 µM in the experiment on SR leukemia. In addition, the TGI in the experiment on HCC-2998 colon is 4.56 µM; in the experiment on HOP-62 NSCLC it was 20.2 µM; in the experiment with HOP-92 NSCLC it was 3.6 µM; in the experiment with KM12 colon, 8.75 µM; with MDA-MB-231 breast it was 3.34 µM; in the experiment on PC-3 prostate it was 6.92 µM. For the same compound, the TGI in the experiment with SF-295 CNS was determined as 26.2 µM; with SK-MEL-2 melanoma it was 5.62 µM; in the experiment with SR leukemia, 2.15 µM.
With `COc1ccc2nc3cc(Cl)ccc3c(NCCCNCCC(C)O)c2c1` (centres undefined), the GI50 was 0.42 µM in the experiment with A498 renal; 0.389 µM with HOP-62 NSCLC; 0.535 µM in the experiment on HOP-92 NSCLC; 0.408 µM in the experiment with KM12 colon; 0.203 µM in the experiment with MDA-MB-231 breast; 0.496 µM in the experiment on PC-3 prostate. Moreover, the GI50 is 0.276 µM in the experiment with SF-295 CNS, 0.704 µM with SK-MEL-2 melanoma and 0.156 µM in the experiment on SR leukemia. The TGI came out at 1.54 µM in the experiment on A498 renal; 2.35 µM in the experiment on HOP-62 NSCLC; 2.76 µM in the experiment with HOP-92 NSCLC; 1.98 µM in the experiment on KM12 colon; 1.37 µM in the experiment with MDA-MB-231 breast; 2.35 µM with PC-3 prostate. The TGI with SF-295 CNS was 1.63 µM; with SK-MEL-2 melanoma it was 2.25 µM; in the experiment with SR leukemia, 1.74 µM.
As for `S=C1Nc2ccc(Cl)cc2C2(c3ccccc3)N3CCN=C3NN12` (centres undefined), the GI50 was 67 µM in the experiment on HCC-2998 colon; 33.3 µM in the experiment with HOP-62 NSCLC; 32.3 µM with HOP-92 NSCLC; 52.1 µM in the experiment with KM12 colon; 32.5 µM in the experiment with MDA-MB-231 breast; 39.3 µM with PC-3 prostate. Besides, the GI50 in the experiment on SF-295 CNS was 28.6 µM; in the experiment on SR leukemia, 23.7 µM. For the same compound, the TGI in the experiment on HCC-2998 colon, in the experiment on HOP-62 NSCLC, in the experiment with HOP-92 NSCLC, in the experiment on KM12 colon, with MDA-MB-231 breast and in the experiment with PC-3 prostate was over 100 µM in each case. Also, the TGI with SF-295 CNS is over 100 µM; in the experiment on SR leukemia, 88.8 µM.
